The values below come from PMC3017850, “Significance of Cuscutain, a cysteine protease from Cuscuta reflexa, in host-parasite interactions” (BMC Plant Biology, 2010).

In the assay the test system is cuscutain. Nature of the assay: colorimetric release of para-nitroaniline at […] nm; Hanes-Woolf plot. Type of assay: biochemical, Cuscuta reflexa. Conditions: pH 7.5; 30 °C (50 mM Tris, 300 mM NaCl) or 37 °C (0.1 M Na-citrate, 20% ethanol), both printed.

Peptide text beside a SMILES is read from it. * marks the point of attachment. pNA = O=[N+]([O-])c1ccc(N*)cc1; Cbz = O=C(OCc1ccccc1)*

In general, Km refers to the substrate concentration at which the rate is half of its maximum. As for `N=C(N)NCCC[C@H](NC(=O)[C@H](Cc1ccccc1)NC(=O)OCc1ccccc1)C(=O)Nc1ccc([N+](=O)[O-])cc1` [Cbz-Phe-Arg-pNA] (Cbz-Phe-Arg-pNA), the Km was found to be 393 ± 20 µM.
